The values that follow come from patent publication US10932472B2, “Coffee extract and its agrochemical use against plant pathogens” (KAMAD KNOWLEDGE SOLUTIONS SL, priority 2013, dated 2021).

Holding throughout (conditions): in vitro conditions
Assay [1] concerns coffee leaf rust uredospores. The assay is described as follows: In vitro germination of coffee leaf rust uredospores (laboratory tests 2013). Format: cell-based, Hemileia vastarix. On the procedure:
A laboratory methodology to understand the mode of action of PA1 (1%) was developed. The efficacy was performed using coffee leaf rust uredospores, collected in the field.

For the next assay, the system named is Botrytis cinerea. Description: In vitro inhibition of mycelial growth on amended PDA media. Format: cell-based. Here is the method: (§1) Additionally, an in vitro efficacy test was performed in order to determine the effect of PA5 against other Phytopathogens. Each pathogen strain was exposed to 0.5 and 2 cc/l, amended to PDA media. The inhibition percentage was evaluated against the control during 7 days.

The test system of a further assay is Collectotrichum sp. The assay is described as above. Format: cell-based. On the procedure:
as §1

Another assay relates to Phytophthora capcisi. Described as above. Format: cell-based. On the procedure: as §1

As to `O=C(O)c1ccc(O)c(O)c1` [PA, 3,4-dihydroxybenzoic acid], the “concentration with direct fungicide action on uredospores germination” value in assay [1] turned out to be 0.25 mg/mL. Also, the growth inhibition entry with Botrytis cinerea, in the assay on Collectotrichum sp and in the assay with Phytophthora capcisi was “inhibits the growth” in each case.
